The test system of one data set is H358 cells. Kind of data set: Inhibition of proliferation of H358 cells (CellTiter-Glo 3D). Format: cell-based. To be noted: Homo sapiens, NCI-H358, low adsorption plate, 120 h. The method, boiled down:
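H358 cells at 1500/well in low-adsorption plates (RPMI, 10% FBS), centrifuged and grown overnight, then exposed 120 h at 37 °C to 9 concentrations, 5-fold dilutions from 10 μM; 0.1% DMSO blank. Luminescence read with CellTiter-Glo 3D; IC50 calculated from the curves.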
A general note: ATP-based viability assays read luminescence as a measure of living cells.

The nature of data set [1]: Pharmacokinetic evaluation in nude mice. To be noted: female, mouse, plasma, po, BALB/C nude mice, intragastric administration, 50 mg/kg. Format: in vivo. The procedure:
The drug concentration in the plasma of the test animals (nude mice) at different time points after intragastric administration (i.g.) of compound 18-p1 was determined by using an LC/MS/MS method. The pharmacokinetic behavior of the compound of the present disclosure in nude mice was studied and its pharmacokinetic profile was evaluated.
Nine BALB/C nude mice, female, intragastric administration, purchased from Beijing Vital River Laboratory Animal Technology Co., Ltd., with animal production license number of SCXK (Shanghai) 2017-0005.
An amount of compound 18-p1 was weighed, dissolved in 0.5% by volume of CMCNa, and then prepared into a 2.5 mg/mL clear solution with 99.5% normal saline.
The nude mice were intragastrically administered at a dose of 50.0 mg/kg and a volume of 20.0 mL/kg.
The compound 18-p1 was administered intragastrically to nude mice, and 0.1 mL of blood was collected from the orbit before administration and 0.25 h, 0.5 h, 1.0 h, 2.0 h, 4.0 h, 6.0 h, 8.0 h, 11.0 h and 24.0 h after administration. The blood was placed in an EDTA-K2 anticoagulation tube and centrifuged at 10,000 rpm for 1 min (4° C.), and plasma was separated out within 1 h and then stored at −20° C. for testing. The process from blood sampling to centrifugation was performed under an ice bath.
The content of the test compounds at different concentrations in plasma of nude mice after administration was determined: 25 μL of plasma of nude mice at each time point after administration was taken, and 200 μL of acetonitrile (containing 50 μL of internal standard solution camptothecin, 100 ng/mL) was added; the mixture was vortexed for 5 min, and centrifuged for 10 min (4000 r/min). 0.5 μL of supernatant was taken from the plasma sample for LC/MS/MS analysis.

Data set [2] addresses T1, interaction between the KRAS protein subtype G12D and the SOS1 protein (Homo sapiens, UniProt Q07889).
T1 construct: GST-TEV-SOS1(564-1049) (Viva Biotech, SOS1-191010); purchased SOS1: Viva Biotech; KRAS: Shanghai Panchao Biotechnology Co., Ltd. SOS1-191010
T1 sequence (Q07889 564-1049): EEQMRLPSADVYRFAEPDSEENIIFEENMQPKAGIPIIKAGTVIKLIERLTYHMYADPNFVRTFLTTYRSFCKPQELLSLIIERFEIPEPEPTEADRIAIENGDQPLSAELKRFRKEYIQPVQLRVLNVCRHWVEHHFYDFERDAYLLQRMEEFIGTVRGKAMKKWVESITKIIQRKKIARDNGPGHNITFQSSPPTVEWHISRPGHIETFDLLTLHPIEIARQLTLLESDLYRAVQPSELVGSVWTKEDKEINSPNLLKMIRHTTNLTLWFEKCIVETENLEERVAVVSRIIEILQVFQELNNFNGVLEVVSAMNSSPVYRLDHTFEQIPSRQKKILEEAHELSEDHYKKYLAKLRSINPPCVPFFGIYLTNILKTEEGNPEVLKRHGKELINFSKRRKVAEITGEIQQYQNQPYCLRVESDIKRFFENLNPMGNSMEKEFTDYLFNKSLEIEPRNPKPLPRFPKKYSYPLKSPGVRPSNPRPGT
Kind of data set: Inhibition of the interaction between KRAS G12D and SOS1 protein (AlphaLISA/AlphaScreen). Format: binding. The conditions noted are these: KRAS G12D + GST-TEV-SOS1(564-1049) + GDP. The method, boiled down:
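Biotinylated KRAS G12D or G12V preincubated with SOS1 and GDP, then with compound (10-point 5-fold series from 40 μM) for 30 min at room temperature in PBS, 0.1% BSA, 0.05% Tween 20. Glutathione acceptor/streptavidin donor beads added for 60 min; Alpha signal read and IC50 calculated.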

For orientation: IC50 means the point on the concentration scale where inhibition reaches its midpoint. The term half-life denotes how long it takes for the measured level to halve. For the compound `Cc1nc(N[C@H](C)c2cccc(C(F)F)c2F)c2cc([C@]3(O)CC[C@@H](O)CC3)c(=O)[nH]c2n1` [Example 18-p1, 4-(((R)-1-(3-(difluoromethyl)-2-fluorophenyl)ethyl)amino)-6-((1s,4S)-1,4-dihydroxycyclohexyl)-2-methylpyrido[2,3-d]pyrimidin-7(8H)-one], the IC50 in the data set with H358 cells was found to be 72 nM; in data set [2], 20 nM. Also, the Vd/F in data set [1] (read-out: Apparent distribution volume Vz/F) was 16.6 L/kg. Moreover, the AUC(0-t) in data set [1] (read-out: Area under curve AUC0-t) is 5150 ng·h/mL. Further, the CL/F in data set [1] (read-out: Clearance CLz/F) worked out at 160 mL/min/kg. Further, the half-life in data set [1] (read-out: Half-life T½ (converted)) is 1.2 h. In data set [1] (read-out: Plasma concentration Cmax), the Cmax came out at 1560 ng/mL.

The record behind these values is patent publication US20230219951A1, “PYRIDINE-PYRIMIDINE DERIVATIVE, PREPARATION METHOD THEREFOR AND PHARMACEUTICAL USE THEREOF” (Jiangsu Hengrui Pharmaceuticals Co., Ltd., priority 2020, published 2023).
